According to US12364719B2, “Bacillus subtilis strains improving animal performance parameters” (priority 2017, dated 2025):
Read-outs that look alike come from different tables or passages of the source.

System: Clostridium perfringens strain 56
Format: in vivo, Male Ross 308 broilers
Conditions: for Mean score (NE): 0-6 score

CC1(C)S[C@@H]2[C@H](NC(=O)[C@H](N)c3ccc(O)cc3)C(=O)N2[C@H]1C(=O)O [Amoxicillin]
% NE (birds positive to macroscopic necrotic enteritis lesions) (Day 25, lesion score 2, infected day 19-22): 44%
% NE (birds positive to macroscopic necrotic enteritis lesions) (Day 25 and 26 combined): 29%
Mean score (NE) (Day 25 and 26 combined): 1.315
Mean score (NE) (Day 26): 1.07
% NE (birds positive to macroscopic necrotic enteritis lesions) (Day 26, lesion score 2, infected day 19-22): 14%
